Experimental data from a melting point compilation (Tetko et al.; mined from patent text by program, amines drawn as free bases though some values may be those of a salt).

SMILES | melting point
Brc1ccc(Br)c2nsnc12 | 181 to 183 °C
CON=C(C(=O)O)c1cnsn1 | 99 to 100 °C
COC(=O)/C(=C/c1ccc(OC)c(OC2CCCC2)c1)CC(=O)O | 119 to 121 °C
O=C1C(Cc2ccccc2)SC(=S)N1c1nccs1 (stereo not drawn) | 164 to 165 °C
CC1ON=C(c2ccc(F)cc2)C1CN(O)C(N)=O (stereo not drawn) | 149 to 151 °C
O=C1NCCC1Cc1ccc(Cl)nc1 (stereo not drawn) | 117 to 118 °C
CC(C)(C)OC(=O)NCCSc1cc(-c2ccccc2)on1 | 87 to 88 °C
CC(C)(C)c1cc(-c2nn(CCC(=O)O)c3ncccc23)cc(C(C)(C)C)c1O | 183 to 186 °C
CN1C(=O)C(c2ccccc2)(c2ccncc2)N=C1N (stereo not drawn) | 154 to 155 °C
CC(=O)Nc1cccc(C(=O)N2CCN(CCc3ccc(Cl)cc3)CC2)c1 | 101 to 107 °C
CCOC(=O)C1(Cc2ccc(OC)c(OC)c2)C(=O)NCC1c1ccc2c(c1)OCO2 (stereo not drawn) | 167 to 168 °C
CC#CCOc1ccc(S(=O)(=O)NC2(C(=O)NO)CCCC2)cc1 | 66 to 68 °C
Cc1cc(C(=O)NC2CC2)ccc1N1CCN(Cc2cnc3c(c2)NC(=O)[C@@H]2CCCN32)CC1 | 227 to 234 °C
CSc1ncc(C(=O)NCCO)c(Nc2ccc3[nH]ncc3c2)n1 | > 270 °C
COc1ccccc1N1CCN(CCCO)CC1 | 88 to 89 °C
CC1(O)ON=C(c2ccc(Br)cc2)C1c1ccccc1 (stereo not drawn) | 153 °C
CCCCCCCCCC(=O)Nc1ccc(S(=O)(=O)Nc2nnc(C)s2)cc1 | 141 to 142 °C
O=C(C=Cc1cc(O)c(O)c([N+](=O)[O-])c1)c1ccccc1O | 231 to 234 °C
CO/C(=C\C=C\c1cc2ccccc2s1)C(=O)NC1CC(C)(C)N(C)C(C)(C)C1 | 240 °C
Cc1nc(C(C)(C)C)ccc1/C=C/C(=O)Nc1ccc2cc[nH]c2c1 | 182 °C
c1cncc(-c2cc(C3CCN(CCc4cccc5ccccc45)CC3)n[nH]2)c1 | 171 to 173 °C
COc1ccc(Br)c(C(=O)N2CCN(S(=O)(=O)c3ccccc3)CC2)c1 | 180 °C
[N-]=[N+]=NCC1OC(n2c(Cl)c(C=O)c3cc(Cl)c(Cl)cc32)C(O)C1O (stereo not drawn) | 160 to 161 °C
COc1ccc(Cc2nc3n(c2-c2ccccc2)CCS3)cc1 | 273 to 274 °C
O=c1c2c(CCc3ccccc3[N+](=O)[O-])n[nH]c2c2cccnc2n1-c1ccccc1 | 333 to 335 °C
N#Cc1ccc2oc(CCc3ccc(C(=O)Nc4cnccn4)cc3)cc2c1 | 183 to 185 °C

SMILES | melting point
CCOC(=O)CC(C)(C)NCC(O)c1ccc(O)c2[nH]c(C(=O)OCC)cc12 (stereo not drawn) | 175 to 178 °C
O=C(NC1Cc2ccc([N+](=O)[O-])cc2C1)c1ccc(F)cc1 (stereo not drawn) | 167 °C
COc1ccc2c(c1)CC(C(=O)O)N2C(C)=O (stereo not drawn) | 164 to 167 °C
CC(C)(C)c1cc(C=Nn2ccnc2)cc(C(C)(C)C)c1O | 171 to 174 °C
CCCc1nn(C)c2c(=O)[nH]c(Cc3ccc(O)cc3)nc12 | 260 °C
CCOC(=O)c1cnc2c3cc(NC(=O)C(CC)CC)ccc3ncn2c1=O | 220 to 222 °C
O=C1NC(C(=O)NCCO[N+](=O)[O-])C(c2ccccc2)S1 (stereo not drawn) | 139 to 140 °C
COc1c(C)c(OC(=O)c2c(C)c(C)c(OCCCN3C(=O)c4ccccc4S3(O)O)c(C)c2OC)c(C)c(C)c1C(=O)O | 222 to 223 °C
CN1CCCC(Cn2cc(-c3ccccc3)c(O)n2)C1 (stereo not drawn) | 132 °C
Nc1ccc(OCC(=O)OCCOC(=O)COc2ccc(N)cc2)cc1 | 124 to 126 °C
CCNC(=S)OCCOc1ccc(Oc2ccc(F)cc2)cc1 | 73 to 75 °C
COc1cc(NC(=O)OC(C)(C)C)c([N+](=O)[O-])cc1I | 171 °C
CCCc1nc2cccc(C(O)=S)c2n1Cc1ccc(-c2ccccc2-c2nc(=O)o[nH]2)cc1 | 220 to 221 °C
CCO/C(=C\c1ccc(C#N)cc1)C(=O)O | 171 to 172 °C
C=C(Sc1ccc(Br)cc1)S(=O)(=O)c1ccc(Cl)cc1 | 45 to 95 °C
CCCCCCC(C)(C)c1cc(O)c2c(c1)oc(=O)c1ccc(O)cc12 | 103 to 108 °C
O=C=Nc1c(F)cc(Cl)c2nc(Cl)sc12 | 95 to 98 °C
CCOC(=O)c1nn(C)cc1-c1ccccc1 | 145 °C
CC1=C(C(=O)OCCCl)C(c2cccc([N+](=O)[O-])c2)C(C(=O)OCC(C)C)=C(C)N1 (stereo not drawn) | 150 to 153 °C
CCOC(=O)CCC(=O)Oc1cccc(-c2cn3c(n2)sc2ccccc23)c1 | 70 to 74 °C
COCc1cccc(CC=NO)c1[N+](=O)[O-] | 92 to 95 °C
OCc1cc2cc(-c3ccccc3)ccc2[nH]1 | 115 to 116 °C
CCCOc1ccccc1-c1nc(O)cc(C(=O)O)n1 | 180 to 182 °C
Cc1ccccc1C(Oc1cc(OCc2ccc3c(c2)OCO3)ccc1C#N)C(=O)O (racemic) | 52 to 56 °C
CN1C(=O)C(c2ccc(OC(F)F)cc2)(c2cccc(OC(F)F)c2)N=C1N (stereo not drawn) | 52 to 54 °C
CC(=O)C1=C(O)c2ccc3ccccc3c2S(=O)(=O)N1 | 191 to 192 °C

SMILES | melting point
COc1ccc(Oc2ccc(Cl)cc2[N+](=O)[O-])c(C=O)c1 | 127 to 128 °C
COC1CCCCC1n1nnc2c([N+](=O)[O-])cccc21 (stereo not drawn) | 134 to 136 °C
Cc1nc(-c2cccc(CN3C(=O)C4(COc5cc6c(cc54)OCCO6)c4ccccc43)c2)no1 (stereo not drawn) | 90 to 95 °C
CCOC(=O)CN1C(=O)[C@@H](NC(=O)OC(C)(C)C)CCc2ccccc21 | 99 to 101 °C
Oc1cc(C(F)CBr)c2oc(-c3ccc(O)c(F)c3)nc2c1 (stereo not drawn) | 185 to 186 °C
CCCCc1ncc(/C=C(\Cc2cccs2)C(=O)O)n1Cc1cccc(OC)c1 | 170 to 171 °C
Cc1ccccc1-c1cc(Cl)cc2c1NC(CN)CO2 (stereo not drawn) | 86 °C
COc1ccc(C(=O)c2cc3cc(Br)ccc3o2)cc1 | 143 to 146 °C
COc1cc2nc(Cl)n3cnnc3c2cc1OC | 269 to 271 °C
CCc1c(Cl)cnn(C(C)(C)C)c1=O | 61.5 to 62.5 °C
CC(C)(C)OC(=O)C[C@H](NC(=O)CCCC(=O)Nc1ccc(C#N)cc1)C(=O)N[C@@H](Cc1ccccc1)C(=O)OC(C)(C)C | 64 to 66 °C
CCCCCCCCSc1ccc(CC(COC(C)=O)(COC(C)=O)NC(C)=O)cc1 | 71 to 74 °C
Cc1cc(S)n2nc(C(=O)NN)nc2n1 | 221 to 222 °C
Cc1cc(C)c2c(c1)c(-c1ccccc1Cl)c(NC(=O)Nc1ccc(F)cc1F)c(=O)n2C | 225 to 227 °C
CC1(C)CC(NC(=O)C(=O)NCCO)CC(C)(C)N1OC1CCCCC1 | 190 to 192 °C
CN1C(C)(C)CC(O[Si](c2ccccc2)(c2ccccc2)c2ccccc2)CC1(C)C | 109 to 110 °C
CC(C)c1nn2ccccc2c1C(O)C(C)(C)C (stereo not drawn) | 95 °C
COc1ccccc1N(CC1OCCO1)C(=O)c1ccc(CCl)cc1 | 126 to 129 °C
CC(=O)COc1ccc([N+](=O)[O-])cc1 | 77 to 78 °C
O=[N+]([O-])c1cc(Cl)cnc1N1CCN(C/C=C/c2ccc(C(F)(F)F)cc2)CC1 | 129 to 132 °C
OC1OC(C2(c3ccccc3)CN2)N2CC12c1ccccc1 (stereo not drawn) | 53 to 55 °C
COC(=O)CCC(=O)N(O)Cc1c(C)n(C(=O)c2ccc(Cl)cc2)c2ccc(OC)cc12 | 158 °C
O=C(c1ccc(Cl)cc1)N1CCc2nnc(Cl)cc2C1 | 170 to 172 °C
CCCCc1nc(-c2nc(C)nc(C)n2)ccc1C | 73.5 °C
CCc1ccc(Nc2nc3cc([N+](=O)[O-])ccc3o2)cc1 | 172 to 173 °C
Cc1cc(C)c(S(=O)(=O)N=[N+]=[N-])c(C)c1S(=O)(=O)N=[N+]=[N-] | 54 to 56 °C

SMILES | melting point
Fc1ccc(F)c(CN2CCNc3ncc(I)cc32)c1 | 175 °C
COc1cc2c(c(OC)c1/C=C/c1ccc(C=O)cc1)C(C)(C)CCC2(C)C | 108 °C
Cc1nc(-n2cccc(C(F)(F)F)c2=O)sc1C(=O)NCc1ccccc1 | 203 to 204 °C
CC(=O)Oc1ccc(CCc2ccc(OC(C)=O)cc2)cc1 | 115 to 116 °C
FC(F)(F)c1cc(Cl)c(-c2nc(Br)c[nH]2)c(Cl)c1 | 224 to 225 °C
Cc1ccc(S(=O)(=O)Nc2cc(C3CCCC3)c([N+](=O)[O-])cc2Br)cc1 | 122 °C
COc1c(C)cnc(CSc2nc3cc(OC(F)(F)F)ccc3[nH]2)c1C | 152 to 154 °C
CCN1C(=O)C(C)(C)C(=O)N(C)c2cc(CN(CCn3cc(C)c4occc4c3=O)Cc3cccnc3COC)ccc21 | 104 to 111 °C
CN(C)S(=O)(=O)c1cc(C(=O)Cl)ccc1Cl | 103 to 105 °C
CC(=O)Nc1nc(NC(C)=O)c2[nH]cnc2n1 | 293 to 295 °C
N#Cc1ccc(NC(=O)CBr)cc1 | 166 to 168 °C
COc1ccc2cc(-c3cnc(-c4cn(Cc5ccccc5)c5ccccc45)o3)ccc2c1 | 198 to 199 °C
COc1ccccc1CSc1nc2cnccc2[nH]1 | 193 to 195 °C
CCCOCC(=O)c1ccc([N+](=O)[O-])cc1 | 49 to 50 °C
NCC1=C(CCC(=O)O)CC=CC1 | 228 to 229 °C
CC(O)(C1=CCNCC1)c1ccc(F)cc1 (stereo not drawn) | 168 °C
Cc1ccc2nc3n(c(=O)c2c1)-c1ccccc1C3=O | 266 to 267 °C
COC(=O)CCCCCSc1ccc(-c2ccc(Cl)cc2)cc1 | 87 to 88 °C
CCCCCN(CCC12CC3CC(CC(C3)C1)C2)C(=O)NCC(C)Cc1ccncc1 (stereo not drawn) | 103 to 104 °C
Cc1cccc(C)c1-c1cc(O)c(SCc2ccccc2)c(=O)o1 | 140 to 143 °C
C[C@]1(Cn2ccnc2)[C@H](C(=O)O)N2C(=O)C[C@H]2S1(=O)=O | 161 °C
O=C(Nc1ccc(Br)cc1)c1ccccc1[N+](=O)[O-] | 202 to 205 °C
O=C(Nc1ccc(-c2ncc(-c3ccc(NC(=O)C4CCCCCC4)cc3)[nH]2)cc1)c1ccc(F)cc1 | 314 to 316 °C
CNC(=NC#N)NCCCn1cc(C2=C(c3cn(C)c4ccccc34)C(=O)NC2=O)c2ccccc21 | 190 to 193 °C
COC(=O)NCCC1CN=C(c2cc3cccc(N(C)S(=O)(=O)c4cccs4)c3[nH]2)S1 (stereo not drawn) | 201 to 203 °C
